The record followed here is ChEMBL document CHEMBL5346933, “Design and synthesis of novel arylurea derivatives of aryloxy(1-phenylpropyl) alicyclic diamines with antimicrobial activity against multidrug-resistant Gram-positive bacteria” (Eur J Med Chem, 2023).

What all share (type): subcellular
What all share (conditions): time 25-30 min

Test [1] has as its system Cell membrane. Nature of the test: Induction of cell membrane depolarization in methicillin-resistant Staphylococcus aureus 19449 assessed as bacterial cells with depolarized membrane potential at 500 uM incubated for 25 to 30 mins by DiOC2(3) probe based flow cytometry (reference value: 0.7%).
The test system of test [2] is Cell membrane. Kind of test: Induction of cell membrane depolarization in Staphylococcus aureus Newman assessed as bacterial cells with depolarized membrane potential at 500 uM incubated for 25 to 30 mins by DiOC2(3) probe based flow cytometry (reference value: 1.6%).
Test [3] relates to Cell membrane. Kind of test: Induction of cell membrane depolarization in methicillin-resistant Staphylococcus aureus 19449 assessed as ratio of red to green fluorescence intensity at 500 uM incubated for 25 to 30 mins by DiOC2(3) probe based flow cytometry.
Test [4] concerns Cell membrane. Kind of test: Induction of cell membrane depolarization in Staphylococcus aureus Newman assessed as ratio of red to green fluorescence intensity at 500 uM incubated for 25 to 30 mins by DiOC2(3) probe based flow cytometry.
Test [5] concerns Cell membrane. Kind of test: Induction of cell membrane depolarization in vancomycin-resistant Enterococcus faecium clinical strain assessed as bacterial cells with polarized membrane potential at 500 uM incubated for 25 to 30 mins by DiOC2(3) probe based flow cytometry (reference value: 96.8%).
The subject of test [6] is Cell membrane. Kind of test: Induction of cell membrane depolarization in vancomycin-resistant Enterococcus faecium clinical strain assessed as ratio of red to green fluorescence intensity at 500 uM incubated for 25 to 30 mins by DiOC2(3) probe based flow cytometry.
Test [7] deals with Cell membrane. Kind of test: Induction of cell membrane depolarization in methicillin-resistant Staphylococcus aureus 19449 assessed as bacterial cells with polarized membrane potential at 500 uM incubated for 25 to 30 mins by DiOC2(3) probe based flow cytometry (reference value: 98.8%).
For test [8], the system named is Cell membrane. Kind of test: Induction of cell membrane depolarization in Staphylococcus aureus Newman assessed as bacterial cells with polarized membrane potential at 500 uM incubated for 25 to 30 mins by DiOC2(3) probe based flow cytometry (reference value: 94.3%).
Test [9] has as its system Cell membrane. Kind of test: Induction of cell membrane depolarization in vancomycin-resistant Enterococcus faecium clinical strain assessed as bacterial cells with depolarized membrane potential at 500 uM incubated for 25 to 30 mins by DiOC2(3) probe based flow cytometry (reference value: 0.8%).

`N#CC(C#N)=NNc1cccc(Cl)c1`: the Activity with Cell membrane [1] came to 99%; with Cell membrane [2] it was 94.5%; in the test with Cell membrane [5] it was 6.5%; in the test on Cell membrane [7] it was 0.3%; with Cell membrane [8] it was 0%; in the test on Cell membrane [9], 88.1%. For the same compound, the Ratio in the test on Cell membrane [3] is 0.34; in the test with Cell membrane [4], 0.33; with Cell membrane [6] it was 0.29.
